pIC50: −log10 of the molar value.
Legend:
SCLC-21H = assay: cells; type: functional, cell-based, Homo sapiens; details: Homo sapiens, SCLC-21H;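 also: growth inhibition of cultured human SCLC-21H cells, read out with a cell viability assay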
Description: SANGER: Inhibition of human SCLC-21H cell growth in a cell viability assay.

LP-1 = assay: cells; type: functional, cell-based, Homo sapiens; details: Homo sapiens, LP-1;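 also: growth inhibition of human LP-1 cells, with the read-out taken from a cell viability assay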
Description: SANGER: Inhibition of human LP-1 cell growth in a cell viability assay.

NCI-H2196 = assay: cells; type: functional, cell-based, Homo sapiens; details: Homo sapiens, NCI-H2196;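 also: cell viability assay used as the readout of growth inhibition in NCI-H2196 cells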
Description: SANGER: Inhibition of human NCI-H2196 cell growth in a cell viability assay.

NCI-H748 = assay: cells; type: functional, cell-based, Homo sapiens; details: Homo sapiens, NCI-H748;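 also: growth inhibition of NCI-H748 cells, measured by a cell viability assay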
Description: SANGER: Inhibition of human NCI-H748 cell growth in a cell viability assay.

LC4-1 = assay: cells; type: functional, cell-based, Homo sapiens; details: Homo sapiens, LC4-1;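 also: growth inhibition of LC4-1 cells, read out with a cell viability assay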
Description: SANGER: Inhibition of human LC4-1 cell growth in a cell viability assay.

JIYOYE = assay: cells; type: functional, cell-based, Homo sapiens; details: Homo sapiens, JIYOYE
Description: SANGER: Inhibition of human JiyoyeP-2003 cell growth in a cell viability assay.

CHP-126 = assay: cells; type: functional, cell-based, Homo sapiens; details: Homo sapiens, CHP-126
Description: SANGER: Inhibition of human CHP-126 cell growth in a cell viability assay.

THP-1 = assay: cells; type: functional, cell-based, Homo sapiens; details: Homo sapiens, THP-1;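 also: growth inhibition of THP-1 cells, read out via a cell viability assay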
Description: SANGER: Inhibition of human THP-1 cell growth in a cell viability assay.

SCC-3 = assay: cells; type: functional, cell-based, Homo sapiens; details: Homo sapiens, SCC-3;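 also: cell viability assay measuring inhibition of SCC-3 cell growth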
Description: SANGER: Inhibition of human SCC-3 cell growth in a cell viability assay.

COR-L279 = assay: SANGER: Inhibition of human COR-L279 cell growth in a cell viability assay.; type: functional, cell-based; details: Homo sapiens, COR-L279
NB1 = assay: cells; type: functional, cell-based, Homo sapiens; details: Homo sapiens, NB1;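 also: reduction of NB1 cell proliferation, read out with a viability assay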
Description: SANGER: Inhibition of human NB1 cell growth in a cell viability assay.

SUP-T1 = assay: cells; type: functional, cell-based, Homo sapiens; details: Homo sapiens, SUP-T1;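 also: growth inhibition of human SUP-T1 cells, read out as cell viability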
Description: SANGER: Inhibition of human SUP-T1 cell growth in a cell viability assay.

RL = assay: cells; type: functional, cell-based, Homo sapiens; details: Homo sapiens, RL
Description: SANGER: Inhibition of human RL cell growth in a cell viability assay.

ARH-77 = assay: cells; type: functional, cell-based, Homo sapiens; details: Homo sapiens, ARH-77;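 also: growth inhibition of ARH-77 cells, read out by a cell viability assay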
Description: SANGER: Inhibition of human ARH-77 cell growth in a cell viability assay.

NCI-H719 = assay: cells; type: functional, cell-based, Homo sapiens; details: Homo sapiens, NCI-H719;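 also: growth inhibition of the cultured cell line, read out with a viability assay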
Description: SANGER: Inhibition of human NCI-H719 cell growth in a cell viability assay.

PFSK-1 = assay: cells; type: functional, cell-based, Homo sapiens; details: Homo sapiens, PFSK-1;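 also: cell viability assay measuring how strongly compounds suppress growth of human PFSK-1 cells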
Description: SANGER: Inhibition of human PFSK-1 cell growth in a cell viability assay.

Hs-578T = assay: cells; type: functional, cell-based, Homo sapiens; details: Homo sapiens, Hs-578T
Description: SANGER: Inhibition of human Hs-578-T cell growth in a cell viability assay.

KYSE-180 = assay: cells; type: functional, cell-based, Homo sapiens; details: Homo sapiens, KYSE-180;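 also: growth inhibition of KYSE-180 cells, read out with a cell viability assay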
Description: SANGER: Inhibition of human KYSE-180 cell growth in a cell viability assay.

ChaGo-K-1 = assay: cells; type: functional, cell-based, Homo sapiens; details: Homo sapiens, ChaGo-K-1;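 also: growth inhibition of ChaGo-K-1 cells, read out with a cell viability assay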
Description: SANGER: Inhibition of human ChaGo-K-1 cell growth in a cell viability assay.

HCT-116 = assay: cells; type: functional, cell-based, Homo sapiens; details: Homo sapiens, HCT-116
Description: SANGER: Inhibition of human HCT-116 cell growth in a cell viability assay.

COLO-678 = assay: cells; type: functional, cell-based, Homo sapiens; details: Homo sapiens, COLO-678
Description: SANGER: Inhibition of human COLO-678 cell growth in a cell viability assay.

SF-295 = assay: cells; type: functional, cell-based, Homo sapiens; details: Homo sapiens, SF-295;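 also: growth inhibition of SF-295 cells, read out with a cell viability assay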
Description: SANGER: Inhibition of human SF295 cell growth in a cell viability assay.

SK-OV-3 = assay: cells; type: functional, cell-based, Homo sapiens; details: Homo sapiens, SK-OV-3;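 also: growth inhibition of SK-OV-3 human cells, read out with a cell viability assay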
Description: SANGER: Inhibition of human SK-OV-3 cell growth in a cell viability assay.

U-118-MG = assay: cells; type: functional, cell-based, Homo sapiens; details: Homo sapiens, U-118-MG
Description: SANGER: Inhibition of human U-118-MG cell growth in a cell viability assay.

KOSC-2 = assay: cells; type: functional, cell-based, Homo sapiens; details: Homo sapiens, KOSC-2;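 also: growth inhibition of KOSC-2 cells, read out by a cell viability assay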
Description: SANGER: Inhibition of human KOSC-2 cell growth in a cell viability assay.

OVCAR-8 = assay: cells; type: functional, cell-based, Homo sapiens; details: Homo sapiens, OVCAR-8;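 also: growth inhibition of human OVCAR-8 cells, read out by a cell viability assay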
Description: SANGER: Inhibition of human OVCAR-8 cell growth in a cell viability assay.

TCC-SUP = assay: cells; type: functional, cell-based, Homo sapiens; details: Homo sapiens, TCC-SUP;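 also: growth inhibition of TCC-SUP cells, read out with a cell viability assay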
Description: SANGER: Inhibition of human TCCSUP cell growth in a cell viability assay.

KYSE-510 = assay: cells; type: functional, cell-based, Homo sapiens; details: Homo sapiens, KYSE-510;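 also: cell viability readout used to measure how strongly growth of the cell line is suppressed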
Description: SANGER: Inhibition of human KYSE-510 cell growth in a cell viability assay.

KYSE-70 cell line = assay: cells; type: functional, cell-based, Homo sapiens; details: Homo sapiens, KYSE-70;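 also: cell viability assay read-out, with IC50 expressing suppression of KYSE-70 cell growth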
Description: SANGER: Inhibition of human KYSE-70 cell growth in a cell viability assay.

COLO-741 = assay: cells; type: functional, cell-based, Homo sapiens; details: Homo sapiens, COLO-741
Description: SANGER: Inhibition of human COLO-741 cell growth in a cell viability assay.

MEL-HO = assay: cells; type: functional, cell-based, Homo sapiens; details: Homo sapiens, MEL-HO
Description: SANGER: Inhibition of human MEL-HO cell growth in a cell viability assay.

YKG-1 = assay: cells; type: functional, cell-based, Homo sapiens; details: Homo sapiens, YKG-1;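 also: cell growth inhibition, read out with a viability assay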
Description: SANGER: Inhibition of human YKG-1 cell growth in a cell viability assay.

G-361 = assay: cells; type: functional, cell-based, Homo sapiens; details: Homo sapiens, G-361
S-117 = assay: cells; type: functional, cell-based, Homo sapiens; details: Homo sapiens, S-117
Description: SANGER: Inhibition of human S-117 cell growth in a cell viability assay.

SK-MEL-28 = assay: cells; type: functional, cell-based, Homo sapiens; details: Homo sapiens, SK-MEL-28;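 also: growth inhibition of human SK-MEL-28 cells, read out with a cell viability assay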
Description: SANGER: Inhibition of human SK-MEL-28 cell growth in a cell viability assay.

M059J = assay: cells; type: functional, cell-based, Homo sapiens; details: Homo sapiens, M059J;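 also: growth inhibition of M059J cells, read out with a cell viability assay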
Description: SANGER: Inhibition of human M059J cell growth in a cell viability assay.

NCI-H1755 = assay: cells; type: functional, cell-based, Homo sapiens; details: Homo sapiens, NCI-H1755;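 also: cell viability readout used to measure growth inhibition of NCI-H1755 cells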
Description: SANGER: Inhibition of human NCI-H1755 cell growth in a cell viability assay.

NCI-H1651 = assay: cells; type: functional, cell-based, Homo sapiens; details: Homo sapiens, NCI-H1651;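 also: Read-out is a cell viability assay, with IC50 expressing inhibition of NCI-H1651 cell growth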
Description: SANGER: Inhibition of human NCI-H1651 cell growth in a cell viability assay.

HCC1806 = assay: cells; type: functional, cell-based, Homo sapiens; details: Homo sapiens, HCC1806;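 also: growth inhibition of the cancer cell line, determined with a cell viability assay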
Description: SANGER: Inhibition of human HCC1806 cell growth in a cell viability assay.

647-V = assay: cells; type: functional, cell-based, Homo sapiens; details: Homo sapiens, 647-V;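 also: growth inhibition of 647-V cells, read out with a cell viability assay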
Description: SANGER: Inhibition of human 647-V cell growth in a cell viability assay.

SNU-423 = assay: cells; type: functional, cell-based, Homo sapiens; details: Homo sapiens, SNU-423
Description: SANGER: Inhibition of human SNU-423 cell growth in a cell viability assay.

HN = assay: cells; type: functional, cell-based, Homo sapiens; details: Homo sapiens, HN
Description: SANGER: Inhibition of human HN cell growth in a cell viability assay.

Daoy = assay: cells; type: functional, cell-based, Homo sapiens; details: Homo sapiens, Daoy;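 also: daoy cell growth inhibition, read out as cell viability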
Description: SANGER: Inhibition of human Daoy cell growth in a cell viability assay.

SNU-449 = assay: cells; type: functional, cell-based, Homo sapiens; details: Homo sapiens, SNU-449
Description: SANGER: Inhibition of human SNU-449 cell growth in a cell viability assay.

SW626 = assay: cells; type: functional, cell-based, Homo sapiens; details: Homo sapiens, SW626;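 also: growth inhibition of SW626 cells, measured with a cell viability assay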
Description: SANGER: Inhibition of human SW626 cell growth in a cell viability assay.

HPAF-II = assay: cells; type: functional, cell-based, Homo sapiens; details: Homo sapiens, HPAF-II;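 also: growth inhibition of HPAF-II cells, read out with a cell viability assay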
Description: SANGER: Inhibition of human HPAF-II cell growth in a cell viability assay.

KYSE-520 cell line = assay: cells; type: functional, cell-based, Homo sapiens; details: Homo sapiens, KYSE-520;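 also: growth inhibition of human KYSE-520 cells, read out with a viability assay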
Description: SANGER: Inhibition of human KYSE-520 cell growth in a cell viability assay.

In the case of `COc1cc2ncn(-c3cc(OCc4ccccc4C(F)(F)F)c(C(N)=O)s3)c2cc1OC` [GW843682X], the pIC50 (SCLC-21H) was 7.04, the pIC50 (LP-1) was 7.20 and the pIC50 (NCI-H2196) was < 6.59. For the same compound, the pIC50 (NCI-H748) was < 6.59, the pIC50 (LC4-1) was 7.26 and the pIC50 (JIYOYE) was 6.83. The pIC50 (CHP-126) was < 6.59, the pIC50 (THP-1) was < 6.59 and the pIC50 (SCC-3) was 7.31. For the same compound, the pIC50 (COR-L279) was 7.00, the pIC50 (NB1) was 7.45 and the pIC50 (SUP-T1) was < 6.59. The pIC50 (RL) was < 6.59, the pIC50 (ARH-77) was 7.24 and the pIC50 (NCI-H719) was < 6.59.
`CS(=O)(=O)c1ccc(C(=O)Nc2ccc(Cl)c(-c3ccccn3)c2)c(Cl)c1` [VISMODEGIB] was tested, and the pIC50 (PFSK-1) was < 5.00, the pIC50 (Hs-578T) was < 5.00 and the pIC50 (KYSE-180) was < 5.00. For the same compound, the pIC50 (ChaGo-K-1) was < 5.00, the pIC50 (HCT-116) was < 5.00 and the pIC50 (COLO-678) was < 5.00. The pIC50 (SF-295) was < 5.00, the pIC50 (SK-OV-3) was < 5.00 and the pIC50 (U-118-MG) was < 5.00. The pIC50 (KOSC-2) was < 5.00, the pIC50 (OVCAR-8) was < 5.00 and the pIC50 (TCC-SUP) was < 5.00. For the same compound, the pIC50 (KYSE-510) was < 5.00, the pIC50 (KYSE-70 cell line) was < 5.00 and the pIC50 (COLO-741) was < 5.00. For the same compound, the pIC50 (MEL-HO) was < 5.00, the pIC50 (YKG-1) was < 5.00 and the pIC50 (G-361) was < 5.00. For the same compound, the pIC50 (S-117) was < 5.00, the pIC50 (SK-MEL-28) was < 5.00 and the pIC50 (M059J) was < 5.00. For the same compound, the pIC50 (NCI-H1755) was < 5.00, the pIC50 (NCI-H1651) was < 5.00 and the pIC50 (HCC1806) was < 5.00. The pIC50 (647-V) was < 5.00, the pIC50 (SNU-423) was < 5.00 and the pIC50 (HN) was < 5.00. The pIC50 (Daoy) was < 5.00, the pIC50 (SNU-449) was < 5.00 and the pIC50 (SW626) was < 5.00. For the same compound, the pIC50 (HPAF-II) was < 5.00 and the pIC50 (KYSE-520 cell line) was < 5.00.
`Cc1ccc(-c2c(C(=O)CCl)n(CCCO)c3ncnc(N)c23)cc1` was tested, and the pIC50 (SCLC-21H) was < 5.40, the pIC50 (LP-1) was < 5.40 and the pIC50 (NCI-H2196) was < 5.40. The pIC50 (NCI-H748) was < 5.40, the pIC50 (LC4-1) was < 5.40 and the pIC50 (JIYOYE) was < 5.40. The pIC50 (CHP-126) was < 5.40, the pIC50 (THP-1) was < 5.40 and the pIC50 (SCC-3) was < 5.40. For the same compound, the pIC50 (COR-L279) was < 5.40, the pIC50 (NB1) was < 5.40 and the pIC50 (SUP-T1) was < 5.40. The pIC50 (RL) was < 5.40, the pIC50 (ARH-77) was < 5.40 and the pIC50 (NCI-H719) was < 5.40.
In the case of `C#Cc1cccc(Nc2ncnc3cc(OCCOC)c(OCCOC)cc23)c1` [ERLOTINIB], the pIC50 (LP-1) was < 5.70, the pIC50 (NCI-H2196) was < 5.70 and the pIC50 (NCI-H748) was < 5.70. The pIC50 (LC4-1) was < 5.70, the pIC50 (JIYOYE) was < 5.70 and the pIC50 (CHP-126) was < 5.70. The pIC50 (THP-1) was < 5.70, the pIC50 (SCC-3) was < 5.70 and the pIC50 (SUP-T1) was < 5.70. The pIC50 (RL) was < 5.70, the pIC50 (ARH-77) was < 5.70 and the pIC50 (NCI-H719) was < 5.70.
`COc1cc2ncn(-c3cc(OCc4ccccc4S(C)(=O)=O)c(C#N)s3)c2cc1OC` [GSK-319347A] was tested, and the pIC50 (SCLC-21H) was < 5.30, the pIC50 (LP-1) was < 5.30 and the pIC50 (NCI-H2196) was < 5.30. The pIC50 (NCI-H748) was < 5.30, the pIC50 (LC4-1) was < 5.30 and the pIC50 (JIYOYE) was < 5.30. For the same compound, the pIC50 (CHP-126) was < 5.30, the pIC50 (THP-1) was < 5.30 and the pIC50 (SCC-3) was < 5.30. The pIC50 (COR-L279) was < 5.30, the pIC50 (NB1) was < 5.30 and the pIC50 (SUP-T1) was < 5.30. The pIC50 (RL) was < 5.30, the pIC50 (ARH-77) was < 5.30 and the pIC50 (NCI-H719) was < 5.30.
In the case of `COc1cc(-c2nn([C@H]3CC[C@H](N4CCN(C(C)=O)CC4)CC3)c3ncnc(N)c23)ccc1NC(=O)c1cc2ccccc2n1C`, the pIC50 (SCLC-21H) was < 5.29, the pIC50 (LP-1) was < 5.29 and the pIC50 (NCI-H2196) was < 5.29. The pIC50 (NCI-H748) was < 5.29, the pIC50 (LC4-1) was < 5.29 and the pIC50 (JIYOYE) was 5.38. For the same compound, the pIC50 (CHP-126) was < 5.29, the pIC50 (THP-1) was < 5.29 and the pIC50 (SCC-3) was < 5.29. For the same compound, the pIC50 (COR-L279) was < 5.29, the pIC50 (NB1) was < 5.29 and the pIC50 (SUP-T1) was < 5.29. For the same compound, the pIC50 (RL) was < 5.29, the pIC50 (ARH-77) was < 5.29 and the pIC50 (NCI-H719) was < 5.29.
